In patent US11768156B2, “Methods and compositions for assessing cell viability” (Life Technologies Corporation, priority 2017, dated 2023):

Experiments:
Format in all cases: cell-based
[1] = system: Jurkat cells; test: Flow cytometry of 50% live/50% dead Jurkat cell mixtures fixed with 4% formaldehyde; settings: 25 μM dye, PBS or complete media, substantial majority of live cells
[2] = system: Jurkat cells; test: Flow cytometry of live and heat-treated Jurkat cells stained in PBS or complete media
[3] = system: untreated Jurkat cells; test: Flow cytometry of untreated Jurkat cells in PBS or complete media; settings: 25 μM, five minutes, PBS and complete media
Description: Populations of untreated Jurkat cells in either PBS or complete media were incubated with 25 μM Compound 2 for five minutes and analyzed by flow cytometry. Results are shown in FIGS. 4A-4B (PBS and complete media, respectively).

[4] = system: Jurkat cells; test: Flow cytometry of 50% live/50% dead Jurkat cell mixtures, fixed and permeabilized
[5] = system: Jurkat cells

## N=c1ccc2c(-c3ccc(C(=O)NCCCCCNC(=O)CCCc4ccc(N(CCCl)CCCl)cc4)cc3C(=O)O)c3ccc(N)c(S(=O)(=O)O)c3oc-2c1S(=O)(=O)O [Compound 2]
[1]
  separation of live cells from dead cells: two logs of separation
[2]; 25 μM dye, PBS versus complete media
  variation in intensity of staining due to the presence of complete media: little to no variation in intensity of staining
[2]; 25 μM dye, stained in PBS and in complete media (RPMI+10FBS), 488 nm excitation, 530/30 nm emission
  separation of live and dead cells in histograms: clear separation of live and dead cells
[2]; live and dead cell peaks, media and PBS
  histogram peaks for staining in media versus in PBS (FIGS. 1B, 1C): overlap
[3]
  strongly labeled peaks corresponding to dead cells: 7-14 % of total cells
[4]; fixed and permeabilized, 25 μM dye, PBS or complete media, substantial majority of live cells
  separation of live cells from dead cells: two logs of separation
[4]; fixed, permeabilized cells
  histogram peaks for staining in media versus in PBS (FIGS. 3A, 3B): mostly or partially overlap
[5]
  difference of unstained control from live cell peaks, peak to peak: 1-1.5 logs
  separation of dead cell peaks from the live cell peaks: good separation
  separation of dead cells from live cells, peak to peak: over 2 logs
  staining of live cells (versus unstained control): negligible
